# Reference: patent US20180071317A1, “USE OF AGENTS THAT ALTER THE PERITUMORAL ENVIRONMENT FOR THE TREATMENT OF CANCER” (SERVICIO ANDALUZ DE SALUD, priority 2011, published 2018)
# What was measured:
# [1] = system: fibroblasts (PHF) co-cultured with tumor cells of lung carcinoma (A-427); assay: Marker expression (IHC) in PHF co-cultured with A-427 tumor cells; assay type: cell-based, human; details: co-culture with A-427 lung carcinoma; SP 1 μM + antagonist 1 μM; 48 h;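 further: cultures grown in human blood plasma from a healthy donor, value is the percentage of fibroblasts positive for each marker, six replicates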
# Method: (§1) All cultures were maintained 48 hours, following which the same cells were included in paraffin blocks for subsequent analysis of the expression of different markers by immunohistochemistry (see Example 1). […] All experiments were carried out sixfold. Analyzed markers in fibroblast cells (stromal cells) were: TGF-α, TGF-β1, TGF-β2, TGF-β3, SPARC, MMP-3, MMP-7, MMP-9, MMP-11, MMP-13 and MMP-14.
# [2] = system: primary human tumor cells; assay: Proliferation of primary human tumor cells with low dose Aprepitant alone or with fibroblasts, leukocytes or macrophages; details: low dose (5 nanomolar)
# [3] = system: fibroblasts (PHF) co-cultured with tumor cells of human cervix carcinoma (KB); assay: Marker expression (IHC) in PHF co-cultured with KB tumor cells; assay type: cell-based; details: co-culture with KB; SP 1 μM + antagonist 1 μM; 48 h;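 further: percentage of PHF fibroblasts showing expression of each marker, cultured in fresh blood plasma from a healthy human donor, six replicates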
# Method: as §1
# [4] = system: fibroblasts (PHF) co-cultured with tumor cells of human Burkitt lymphoma (CA-46); assay: Marker expression (IHC) in PHF co-cultured with CA-46 tumor cells; assay type: cell-based; details: PHF co-cultured with CA-46 + SP + NK1 antagonist;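 further: percentage of PHF fibroblasts positive for each marker, cultures grown in fresh human plasma from a healthy donor, six replicates, compared with fibroblasts cultured alone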
# Method: All cultures were maintained 48 hours, following which the same cells were included in paraffin blocks for subsequent analysis of the expression of different markers by immunohistochemistry (see Example 1). The primary antibodies used to perform immunohistochemical assays and their concentration are detailed in Example 2. All experiments were carried out sixfold. Analyzed markers in fibroblast cells (stromal cells) were: TGF-α, TGF-β1, TGF-β2, TGF-β3, SPARC, MMP-3, MMP-7, MMP-9, MMP-11, MMP-13 and MMP-14.
# [5] = system: fibroblasts (PHF) co-cultured with human neuroblastoma tumor cells (KELLY); assay: Marker expression (IHC) in PHF co-cultured with KELLY tumor cells; assay type: cell-based; details: PHF co-cultured with KELLY + SP + NK1 antagonist;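 further: Co-cultures grown on healthy-donor human blood plasma, run in six replicates, value is percentage of fibroblasts positive for each marker, compared with fibroblasts cultured alone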
# Method: as §1
# [6] = system: fibroblasts of tumors produced by human rhabdomyosarcoma tumor line (A-204); assay: Marker expression (IHC) in fibroblasts of tumor or peritumoral area, mouse model, A-204; assay type: in vivo; details: A-204 tumors in mice, 30 mg/kg/day oral, 7 days
# Method: In vitro tests conducted in Example 5 are now carried out in an experimental model in mice in vivo. […] Subsequently, the expression in fibroblasts tumoral and peritumoral area of molecular markers associated with progression and maintenance of tumors: TGF-α, TGF-β1, TGF-β2, TGF-β3, MMP-7, MMP-11, MMP-14 were analyzed by immunohistochemistry.
# Were injected with 2×10^7 cells tumors (corresponding, in each case to each of the tumor types as specified in Table 9) in 200 of PBS subcutaneously μl. […] Mice were randomized into two groups when the tumors reached a volume of 75 mm^3 One group was treated with non-peptide receptor antagonists NK1 and the other with placebo 200μ1. […] Tumors and samples of non-neoplastic stromal areas remote from the tumor were halved, formalin fixed (4%) and then were included in paraffin blocks for analysis by immunohistochemistry.
# The expression on fibroblast cells obtained in the animal model was analyzed by immunohistochemistry, of the above markers: TGF-α, TGF-β1, TGF-β2, TGF-β3, MMP-7, MMP-1 1, MMP-14MP-14. Tables 32 to 35 depict the type of label used and the average percentage of fibroblasts present in non-tumor areas, tumor and peritumoral (±SD) which were expressing the marker shown in each of the tumor types developed from of the different cell lines used. This process was realized in mice treated with non-peptide antagonists of NK1 receptor and in untreated animals (control).
# [7] = system: tumors from the tumor cell lines of Table 9; assay: Mean tumor volume in nude mice injected subcutaneously with human tumor cells; details: 30 mg/kg/day oral, 7 days
compound,measurement,setting,value
C[C@@H](O[C@H]1OCCN(Cc2n[nH]c(=O)[nH]2)[C@H]1c1ccc(F)cc1)c1cc(C(F)(F)F)cc(C(F)(F)F)c1 [Aprepitant],PHF cells expressing MMP-3,[1],0%
same,PHF cells expressing MMP-7,[1],0%
same,PHF cells expressing MMP-9,[1],0%
same,PHF cells expressing MMP-11,[1],0%
same,PHF cells expressing MMP-13,[1],0%
same,PHF cells expressing MMP-14,[1],0%
same,PHF cells expressing SPARC,[1],0%
same,PHF cells expressing TGF-α,[1],0%
same,PHF cells expressing TGF-β1,[1],0%
same,PHF cells expressing TGF-β2,[1],0%
same,PHF cells expressing TGF-β3,[1],0%
same,growth of primary tumor cells cultured alone (in words),[2],does not inhibit the growth of tumor cells at low dose
same,proliferation of primary tumor cells co-cultured with stromal fibroblasts and immune/inflammatory cells (in words),[2],produces a proliferation of inhibition of tumor cells
same,PHF cells expressing MMP-3,[3],0%
same,PHF cells expressing MMP-7,[3],0%
same,PHF cells expressing MMP-9,[3],0%
same,PHF cells expressing MMP-11,[3],0%
same,PHF cells expressing MMP-13,[3],0%
same,PHF cells expressing MMP-14,[3],0%
same,PHF cells expressing SPARC,[3],0%
same,PHF cells expressing TGF-α,[3],0%
same,PHF cells expressing TGF-β1,[3],0%
same,PHF cells expressing TGF-β2,[3],0%
same,PHF cells expressing TGF-β3,[3],0%
same,cells expressing MMP-3,[4],0%
same,cells expressing MMP-7,[4],0%
same,cells expressing MMP-9,[4],0%
same,cells expressing MMP-11,[4],0%
same,cells expressing MMP-13,[4],0%
same,cells expressing MMP-14,[4],0%
same,cells expressing SPARC,[4],0%
same,cells expressing TGF-α,[4],0%
same,cells expressing TGF-β1,[4],0%
same,cells expressing TGF-β2,[4],0%
same,cells expressing TGF-β3,[4],0%
same,cells expressing MMP-3,[5],0%
same,cells expressing MMP-7,[5],0%
same,cells expressing MMP-9,[5],0%
same,cells expressing MMP-11,[5],0%
same,cells expressing MMP-13,[5],0%
same,cells expressing MMP-14,[5],0%
same,cells expressing SPARC,[5],0%
same,cells expressing TGF-α,[5],0%
same,cells expressing TGF-β1,[5],0%
same,cells expressing TGF-β2,[5],0%
same,cells expressing TGF-β3,[5],0%
same,fibroblasts expressing MMP-7,[6],0%
same,fibroblasts expressing MMP-11,[6],0%
same,fibroblasts expressing MMP-14,[6],0%
same,fibroblasts expressing TGF-α,[6],0%
same,fibroblasts expressing TGF-β 1,[6],0%
same,fibroblasts expressing TGF-β 2,[6],0%
same,fibroblasts expressing TGF-β 3,[6],0%
same,Mean tumor volume,[7]; B lymphoblastic leukemia (peripheral human B lymphoblastoid cells) SD1,103 ± 8
same,Mean tumor volume,[7]; Carcinoma of human non-small cell lung COR-L23,102 ± 5
same,Mean tumor volume,[7]; Carcinoma of human non-small cell lung H-1963,98 ± 5
same,Mean tumor volume,[7]; Carcinoma of human non-small cell lung HCC-44,105 ± 7
same,Mean tumor volume,[7]; Carcinoma of human small cell lung H-209,104 ± 6
same,Mean tumor volume,[7]; Carcinoma of human urinary bladder 5637,102 ± 4
same,Mean tumor volume,[7]; Human B lymphoma BC-1,108 ± 5
same,Mean tumor volume,[7]; Human Burkitt lymphoma CA-46,109 ± 7
same,Mean tumor volume,[7]; Human Fibrosarcoma HT-1080,100 ± 4
same,Mean tumor volume,[7]; Human Hodgkin lymphoma KM-H2,101 ± 5
same,Mean tumor volume,[7]; Human Rhabdomyosarcoma A-204,102 ± 8
same,Mean tumor volume,[7]; Human T-cell leukemia/NK YT,106 ± 6
same,Mean tumor volume,[7]; Human T-lymphoma DERL human Hodgkin 7Linfoma KM-H2,105 ± 6
same,Mean tumor volume,[7]; Human breast adenocarcinoma humano MCF-7,95 ± 6
same,Mean tumor volume,[7]; Human breast carcinoma MDA-MB-468,99 ± 7
same,Mean tumor volume,[7]; Human breast carcinoma MT-3,109 ± 2
same,Mean tumor volume,[7]; Human choriocarcinoma AC-1M32,112 ± 4
same,Mean tumor volume,[7]; Human colon carcinoma SW-403,79 ± 4
same,Mean tumor volume,[7]; Human endometrial carcinoma AN3-CA,90 ± 4
same,Mean tumor volume,[7]; Human endometrial stromal sarcoma ESS-1,107 ± 4
same,Mean tumor volume,[7]; Human folicular thyroid carcinoma TT2609-C02,105 ± 7
same,Mean tumor volume,[7]; Human gastric adenocarcinoma 23132/87,77 ± 6
same,Mean tumor volume,[7]; Human glioma GAMG,108 ± 8
same,Mean tumor volume,[7]; Human lung carcinoma A-427,104 ± 4
same,Mean tumor volume,[7]; Human lung carcinoma DV-90,97 ± 3
same,Mean tumor volume,[7]; Human lymphoblastic leukemia T BE-13,102 ± 6
same,Mean tumor volume,[7]; Human malignant fibrous histiocytoma U-2197,102 ± 6
same,Mean tumor volume,[7]; Human melanoma MEL HO,104 ± 5
same,Mean tumor volume,[7]; Human multiple myeloma COLO-677,102 ± 6
same,Mean tumor volume,[7]; Human neuroblastoma KELLY,105 ± 6
same,Mean tumor volume,[7]; Human neuroblastoma bone marrow SKN-BE 2,97 ± 9
same,Mean tumor volume,[7]; Human osteosarcoma CAL-72,112 ± 4
same,Mean tumor volume,[7]; Human ovarian adenocarcinoma EFO-27,98 ± 7
same,Mean tumor volume,[7]; Human ovarian carcinoma COLO-704,101 ± 7
same,Mean tumor volume,[7]; Human pancretic adenocarcinoma CAPAN-1,86 ± 8
same,Mean tumor volume,[7]; Human pancretic adenocarcinoma PA-TU 8902,102 ± 7
same,Mean tumor volume,[7]; Human papillary thyroid carcinoma metastasizing B-CPAP,102 ± 4
same,Mean tumor volume,[7]; Human prostate carcinoma 22RV1,103 ± 5
same,Mean tumor volume,[7]; Human retinoblastoma WERI-Rb-1,99 ± 4
same,Mean tumor volume,[7]; Human thyroid carcinoma 8505C,105 ± 3
same,Mean tumor volume,[7]; Human uterine cervix carcinoma KB,103 ± 9
same,Mean tumor volume,"[7]; Melanoma humano, metástasis en ganglio linfático COLO 858",109 ± 4
same,Mean tumor volume,[7]; Sarcoma human Edwing MHH-ES-1,103 ± 5
same,Mean tumor volume,[7]; Transitional Carcinoma of human urinary bladder RT-4,102 ± 6
